Experimental data taken from patent US9952206B2, “Immunoassay for detecting kratom, its constituents and their use” (Randox Laboratories Limited, priority 2013, dated 2018).
≈ marks a conversion by molar mass, not a printed value.

Test system: antibodies of the invention (antisera generated in response to the immunogen of Example 4)
Assay: Competitive chemiluminescent biochip immunoassay, standard curve generation using generated antiserum
Details: for IC50 (standard concentration which produces 50% B/B0): biochip-immobilised IgG fraction of antiserum, hapten-HRP conjugate of Example 5; for % CR (percentage cross-reactivity based on 100% specificity to mitragynine): relative to mitragynine = 100%

| SMILES | IC50 (standard concentration which produces 50% B/B0) [ng/mL] | B/Bo (calibrator 0.313 ng/ml) [%] | B/Bo (calibrator 0.625 ng/ml) [%] | B/Bo (calibrator 1.250 ng/ml) [%] | B/Bo (calibrator 2.500 ng/ml) [%] | B/Bo (calibrator 5.000 ng/ml) [%] | B/Bo (calibrator 10.000 ng/ml) [%] | B/Bo (calibrator 20.000 ng/ml) [%] | % CR (percentage cross-reactivity based on 100% specificity to mitragynine) [%] |
| --- | --- | --- | --- | --- | --- | --- | --- | --- | --- |
| CC[C@@H]1CN2CCc3c([nH]c4cccc(OC)c34)[C@H]2C[C@@H]1/C(=C\OC)C(=O)OC (stereo in doubt) [Mitragynine, (E)-2-[(2S,3S,12bS)-3-ethyl-8-methoxy-1,2,3,4,6,7,12,12b-octahydroindolo[2,3-a]quinozilizin-2-yl]-3-methoxy propenoic acid methyl ester] | 1.193 (≈ 2.99 nM) | 75 | 63 | 49 | 37 | 25 | 17 | 11 | 100.00 |
| CCC1CN2CCc3c([nH]c4cccc(O)c34)C2CC1C(=COC)C(=O)OC [8-Desmethylmitragynine, (E)-2-[(2S,3S,12bS)-3-ethyl-8-hydroxy-1,2,3,4,6,7,12,12b-octahydroindolo[2,3-a]quinozilizin-2-yl]-3-methoxy propenoic acid methyl ester] | 1.532 (≈ 3.98 nM) | 74 | 63 | 54 | 42 | 29 | 18 | 13 | 77.87 |
